Laboratory results published in publication PMC7504721, “Targeting the Initiator Protease of the Classical Pathway of Complement Using Fragment-Based Drug Discovery” (Molecules, 2020).

Tested on: alternative pathway
Experiment: Alternative pathway-specific ELISA (LPS, 20% serum, C3b detection)
Type: biochemical, human
Settings: single dose 500 µM, triplicate
Description: Figure 5 Selectivity and mechanistic analysis of CMP-1611 and CMP-1696. (A) Chemical structure of CMP-1611. (B) Chemical structure of CMP-1696. (C) Dose-dependent inhibition by CMP-1611 and CMP-1696 in a classical pathway-specific ELISA. Data were fit with GraphPad Prism using non-linear regression with a log(inhibitor) vs. response model. […] (D) Complement pathway selectivity of CMP-1611 and CMP-1696. Compounds were assessed for their ability to inhibit activation of complement via the lectin and alternative pathways using single doses of 500 µM compound in triplicate. To ensure only lectin pathway activation, 2% (v/v) C1q-depleted serum (CompTech) was used and mannan was used as the activator. To match serum sources and amounts for this assay, the classical pathway assays were repeated here using serum from CompTech at 2% (v/v) final concentration. Alternative pathway activation assays were performed using 20% (v/v) serum (CompTech), alternative pathway buffers, and C3b detection (see Methods and Materials for details). […]
To carry out classical pathway ELISA-based inhibition assays, IgM was dissolved in coating buffer (100 mM Na2CO3/NaHCO3, pH 9.6) to a final concentration of 3 µg/mL and was dispensed into 96-well plates at 100 µL per well. […] The reaction was stopped with 50 µL of 0.16 M sulfuric acid, and the plate was read at 450 nm using an EnSight multimode plate reader (Perkin-Elmer). […]

For CN(C)c1cc(N2CCCC(N)C2)ncn1 (stereo not shown) [CMP-1611], the “inhibition of alternative pathway activation” value was “no effect”.
